Measurements taken from patent publication US20160333419A1, “GENE SIGNATURES ASSOCIATED WITH SENSITIVITY TO MDM2 INHIBITORS” (DAIICHI SANKYO COMPANY, LIMITED, priority 2014, published 2016).

How the values were obtained:
Assay in all cases: OncoPanel cytotoxicity assay
Assay type in all cases: cell-based
[1] = test system: SK-MEL-28; settings: Homo sapiens, 72 hour incubation
Description: (§1) Cells were grown in RPMI 1640, 10% FBS, 2 mM L-alanyl-L-Glutamine, 1 mM Na Pyruvate, or a special medium in a humidified atmosphere of 5% CO2 at 37° C. Cells were seeded into 384-well plates and incubated in a humidified atmosphere of 5% CO2 at 37° C. Test compounds were added 24 hours post cell seeding. At the same time, a time zero, untreated cell plate was generated as a control. After a 72 hour incubation period, cells were fixed and stained with nuclear dye to allow visualization of nuclei.
(§2) Compounds were serially diluted 3.16-fold and assayed over 10 concentrations of inhibitor in a final assay concentration of 0.1% DMSO from the highest test concentration specified in the sample information chapter. Automated fluorescence microscopy was carried out using a GE Healthcare InCell Analyzer 1000, and images were collected with a 4× objective. Twelve bit tiff images were acquired using the InCell Analyzer 1000 3.2 and analyzed with Developer Toolbox 1.6 software.
(§3) Cell proliferation was measured by the signal intensity of the incorporated nuclear dye. The cell proliferation assay output is referred to as the relative cell count. To determine the cell proliferation end point, the cell proliferation data output is transformed to percent of control (POC) using the following formula: […]
(§4) Relative cell count IC50 (IC50) is the test compound's concentration that produces 50% of the cell proliferation inhibitory response or 50% cytotoxicity level. IC50 values were calculated using nonlinear regression to fit data to a sigmoidal 4 point, 4 parameter One-Site dose response model, where: y (fit)=A+[(B−A)/(1+((C/x)̂D))]. Curve-fitting, IC50 calculations and report generation were performed using a custom data reduction engine MathIQ based software (AIM). […] In these cases, the IC50 values were expressed as 40 μM and 10 μM, respectively (Table 2).

[2] = test system: Caki-2; settings: Homo sapiens, 72 hour incubation
Description: as §1, §2, §3, §4

[3] = test system: DU145; settings: Homo sapiens, DU-145, 72 hour incubation
Description: as §1, §2, §3, §4

[4] = test system: HT1376; settings: Homo sapiens, HT-1376, 72 hour incubation
Description: as §1, §2, §3, §4

[5] = test system: HLE; settings: Homo sapiens, 72 hour incubation
Description: as §1, §2, §3, §4

[6] = test system: 22Rv1; settings: Homo sapiens, 72 hour incubation
Description: as §1, §2, §3, §4

[7] = test system: DOHH-2; settings: Homo sapiens, 72 hour incubation
Description: as §1, §2, §3, §4

[8] = test system: Colo 205; settings: Homo sapiens, 72 hour incubation
Description: as §1, §2, §3, §4

[9] = test system: SNU-16; settings: Homo sapiens, 72 hour incubation
Description: as §1, §2, §3, §4

[10] = test system: NCI-H596; settings: Homo sapiens, 72 hour incubation
Description: as §1, §2, §3, §4

[11] = test system: SW872; settings: Homo sapiens, 72 hour incubation
Description: as §1, §2, §3, §4

[12] = test system: G-402; settings: Homo sapiens, 72 hour incubation
Description: as §1, §2, §3, §4

[13] = test system: OCUG-1; settings: Homo sapiens, 72 hour incubation
Description: as §1, §2, §3, §4

[14] = test system: PC-3; settings: Homo sapiens, 72 hour incubation
Description: as §1, §2, §3, §4

[15] = test system: BC-1; settings: Homo sapiens, BC1, 72 hour incubation
Description: as §1, §2, §3, §4

[16] = test system: NCI-H747; settings: Homo sapiens, 72 hour incubation
Description: as §1, §2, §3, §4

[17] = test system: SW480; settings: Homo sapiens, 72 hour incubation
Description: as §1, §2, §3, §4

[18] = test system: PANC-1; settings: Homo sapiens, 72 hour incubation
Description: as §1, §2, §3, §4

[19] = test system: SW837; settings: Homo sapiens, 72 hour incubation
Description: as §1, §2, §3, §4

[20] = test system: NALM-6; settings: Homo sapiens, 72 hour incubation
Description: as §1, §2, §3, §4

[21] = test system: CML-T1; settings: Homo sapiens, 72 hour incubation
Description: as §1, §2, §3, §4

[22] = test system: DMS114; settings: Homo sapiens, DMS-114, 72 hour incubation
Description: as §1, §2, §3, §4

[23] = test system: Ramos (RA 1); settings: Homo sapiens, 72 hour incubation
Description: as §1, §2, §3, §4

[24] = test system: NCI-H520; settings: Homo sapiens, 72 hour incubation
Description: as §1, §2, §3, §4

[25] = test system: Jurkat; settings: Homo sapiens, 72 hour incubation
Description: as §1, §2, §3, §4

[26] = test system: C-33A; settings: Homo sapiens, 72 hour incubation
Description: as §1, §2, §3, §4

[27] = test system: T47D; settings: Homo sapiens, 72 hour incubation
Description: as §1, §2, §3, §4

[28] = test system: HT-3; settings: Homo sapiens, 72 hour incubation
Description: as §1, §2, §3, §4

[29] = test system: SW948; settings: Homo sapiens, 72 hour incubation
Description: as §1, §2, §3, §4

[30] = test system: C32TG; settings: Homo sapiens, 72 hour incubation
Description: as §1, §2, §3, §4

[31] = test system: MeWo; settings: Homo sapiens, 72 hour incubation
Description: as §1, §2, §3, §4

[32] = test system: EM-2; settings: Homo sapiens, 72 hour incubation
Description: as §1, §2, §3, §4

[33] = test system: 769-P; settings: Homo sapiens, 72 hour incubation
Description: as §1, §2, §3, §4

[34] = test system: Wi38; settings: Homo sapiens, WI-38, 72 hour incubation
Description: as §1, §2, §3, §4

[35] = test system: MV-4-11; settings: Homo sapiens, MV4-11, 72 hour incubation
Description: as §1, §2, §3, §4

[36] = test system: HT; settings: Homo sapiens, 72 hour incubation
Description: as §1, §2, §3, §4

[37] = test system: HUH-6 Clone 5; settings: Homo sapiens, HUH-6-clone5, 72 hour incubation
Description: as §1, §2, §3, §4

[38] = test system: TCCSUP; settings: Homo sapiens, TCC-SUP, 72 hour incubation
Description: as §1, §2, §3, §4

[39] = test system: DoTc2 4510; settings: Homo sapiens, 72 hour incubation
Description: as §1, §2, §3, §4

Row | Compound | IC50 [1] | IC50 [2] | IC50 [3] | IC50 [4] | IC50 [5] | IC50 [6] | IC50 [7] | IC50 [8] | IC50 [9] | IC50 [10] | IC50 [11] | IC50 [12] | IC50 [13] | IC50 [14] | IC50 [15] | IC50 [16] | IC50 [17] | IC50 [18] | IC50 [19] | IC50 [20] | also measured
1 | CC[C@@H]1CNC2(CC2)CN1C(=O)[C@@H]1C[C@@H](F)CN1C(=O)C1=C(C(C)C)N2C(=N[C@@](C)(c3ccc(Cl)nc3)[C@H]2c2ccc(Cl)c(F)c2)S1 [Compound A, [(5R,6S)-5-(4-Chloro-3-fluorophenyl)-6-(6-chloropyridin-3-yl)-6-methyl-3-(propan-2-yl)-5,6-dihydroimidazo[2,1-b][1,3]thiazol-2-yl][(2S,4R)-2-{[(6R)-6-ethyl-4,7-diazaspiro[2.5]oct-7-yl]carbonyl}-4-fluoropyrrolidin-1-yl]methanone] | > 40 µM | 0.472 µM | > 40 µM | 38.9 µM | 28.9 µM | 1.31 µM | 0.123 µM | 36.7 µM | 28.5 µM | > 40 µM | > 40 µM | 0.568 µM | > 40 µM | > 40 µM | 0.464 µM | > 40 µM | > 40 µM | > 40 µM | > 40 µM | 0.658 µM | IC50 [21]: 2.38 µM; IC50 [22]: > 40 µM; IC50 [23]: > 40 µM; IC50 [24]: > 40 µM; IC50 [25]: > 40 µM; IC50 [26]: > 40 µM; IC50 [27]: 32.3 µM; IC50 [28]: > 40 µM; IC50 [29]: > 40 µM; IC50 [30]: 0.36 µM; IC50 [31]: > 40 µM; IC50 [32]: > 40 µM; IC50 [33]: 0.442 µM; IC50 [34]: 0.171 µM; IC50 [35]: 0.372 µM; IC50 [36]: > 40 µM; IC50 [37]: 0.329 µM; IC50 [38]: > 40 µM; IC50 [39]: 39.6 µM
2 | CC1(C)CCC2(CC1)N[C@@H](C(=O)N[C@@H]1CC[C@@H](C(N)=O)OC1)[C@H](c1ccnc(Cl)c1F)[C@]21C(=O)Nc2cc(Cl)ccc21 [Compound B, (3′R,4′S,5′R)—N-[(3R,6S)-6-carbamoyltetrahydro-2H-pyran-3-yl]-6″-chloro-4′-(2-chloro-3-fluoropyridin-4-yl)-4,4-dimethyl-2″-oxo-1″,2″-dihydrodispiro[cyclohexane-1,2′-pyrrolidine-3′,3″-indole]-5′-carboxamide] | > 10 µM | 0.0821 µM | 7.91 µM | > 10 µM | > 10 µM | 0.109 µM | 0.0288 µM | 9.48 µM | 9.92 µM | > 10 µM | > 10 µM | 0.0261 µM | > 10 µM | > 10 µM | 0.074 µM | > 10 µM | > 10 µM | 6.73 µM | > 10 µM | 0.065 µM | IC50 [21]: 0.0597 µM; IC50 [22]: > 10 µM; IC50 [23]: 8.66 µM; IC50 [24]: > 10 µM; IC50 [25]: > 10 µM; IC50 [26]: 5.49 µM; IC50 [27]: 7.76 µM; IC50 [28]: > 10 µM; IC50 [29]: > 10 µM; IC50 [30]: 0.0329 µM; IC50 [31]: > 10 µM; IC50 [32]: > 10 µM; IC50 [33]: 0.036 µM; IC50 [34]: 0.0379 µM; IC50 [35]: 0.0254 µM; IC50 [36]: > 10 µM; IC50 [37]: 0.0719 µM; IC50 [38]: > 10 µM; IC50 [39]: > 10 µM
